One may read the ED50 as the dose that gives a 50% effect, or the effect in half of the subjects. A low value points to greater potency.

Consider eight compounds from US4560687A, “Substituted aromatic compounds” (priority 1979, dated 1985).

Like-named read-outs stand apart in the source and are kept apart here.

The test system of one data set is Plasmadium berghei. Particulars: Plasmadium berghei in mice; Rees et al, 1972; cited from earlier work.
The conditions of data set [1]: cited from earlier work; for toxicity: at curative doses.
Data set [2] can be described thus: standard maximal electroshock test (anticonvulsant activity). Particulars: Mus musculus, po, mice. It counts as in vivo. Here is the method: The anticonvulsant activity of the compounds of the present invention was determined by a standard maximal electroshock test, that described by L. A. Woodbury and V. D. Davenport, Arch. Int. Pharmacodyn., 1952, 92, 97.
The conditions of data set [3]: anti-malarial agents tested as anticonvulsants; Rosenburg and Bottiroli, 1964; cited from earlier work.

`Nc1nnc(-c2ccc(Cl)cc2Cl)c(N)n1` [2,4-dichlorophenyl]: the activity against malaria entry in the data set on Plasmadium berghei is “only slight antimalarial activity”.
Take `Nc1nnc(-c2ccc(Cl)c(Cl)c2)c(N)n1` [3,4-dichlorophenyl]: the activity against malaria result in the data set with Plasmadium berghei is reported as “active against the malaria organism”. The toxicity entry in data set [1] (Rees et al, 1972) is “toxic at curative doses”. Further, in data set [1] (mouse, in vivo), the therapeutic ratio entry is on record as “low therapeutic ratio”.
`Nc1nnc(-c2cc3ccccc3cc2Cl)c(N)n1` [3,5-diamino-6-(3-chloro-2-naphthyl)-1,2,4-triazine] registered an ED50 in data set [2] of 12 mg/kg.
On the same count and under the same terms, the result for `Cc1cc(Cl)ccc1-c1nnc(N)nc1N` [3,5-diamino-6-(4-chloro-2-methylphenyl)-1,2,4-triazine] reads 14.8 mg/kg; that for `Nc1nnc(-c2ccc(Cl)c(C(F)(F)F)c2)c(N)n1` [3,5-diamino-6-(4-chloro-3-trifluoromethylphenyl)-1,2,4-triazine], 18.5 mg/kg.
Turning to `Nc1nnc(-c2ccc(Cl)cc2)c(N)n1` [4-chlorophenyl], the activity against malaria entry in the data set with Plasmadium berghei is “active against the malaria organism”. The toxicity entry in data set [1] (Rees et al, 1972) was “toxic at curative doses”. Also, in data set [1] (malaria context, Rees et al, 1972), the therapeutic ratio result is “low therapeutic ratio”.
For the compound `Nc1nnc(-c2ccc(C(F)(F)F)cc2)c(N)n1` [4-trifluoromethylphenyl], the activity against malaria entry in the data set with Plasmadium berghei is “still being active against malaria”. Moreover, the toxicity entry in data set [1] (Rees et al, 1972) is “less toxic than the chlorophenyl compounds”.
For `CCN(CCO)CCCC(C)Nc1ccnc2cc(Cl)ccc12` (stereo not shown) [hydroxychloroquine], the anticonvulsant activity profile result in data set [3] is listed as “favourable activity profile”.
